Laboratory results: ChEMBL document CHEMBL1201862, “PubChem BioAssay data set” (2004)
The source made the active and inactive calls.

How the values were obtained:
Cytochrome P450 2C9 = Cytochrome P450 2C9 (Homo sapiens, UniProt P11712)
Cytochrome P450 3A4 = Cytochrome P450 3A4 (Homo sapiens, UniProt P08684);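 also: CYP3A4 tested as one member of a cytochrome P450 panel screen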
[1] = Luminescence Cell-Based Dose Response HTS to Identify Activators of Luciferase Translation or Activity in H4 […] Cells. [Related pubchem assays: 1829 (Project Summary), 1814 (Primary HTS)]; assay type: functional
[2] = Luminescence Cell-Based Dose Confirmation HTS to Identify Activators of 5'UTR Stem-Loop Driven Alpha-Synuclein mRNA Translation in H4 Neuroglioblastoma Cells. [Related pubchem assays: 1829 (Project Summary), 1814 (Primary HTS)]; assay type: functional
H4 = assay: Luminescence Cell-Based Dose Response HTS to Identify Activators of 5'UTR Stem-Loop Driven Prion Protein mRNA Translation in H4 Neuroglioblastoma Cells. [Related pubchem assays: 1829 (Project Summary), 1814 (Primary HTS)]; assay type: functional; conditions: Homo sapiens
[3] = target: T1, Heat shock factor protein 1 (Mus musculus, UniProt P38532); assay: HSF1 potentiators in luciferase reporter cells, confirmation, cell-based, NIH3T3, luminescence, dose retest (AID 435004); assay type: functional;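 also: stress induced by proteasome inhibitor MG132 added 30 min after compound; luciferase reporter driven by HSF1 response element in NIH3T3 cells; actives raise luminescence as potentiators of the MG132 stress response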
T1 sequence (P38532 whole entry): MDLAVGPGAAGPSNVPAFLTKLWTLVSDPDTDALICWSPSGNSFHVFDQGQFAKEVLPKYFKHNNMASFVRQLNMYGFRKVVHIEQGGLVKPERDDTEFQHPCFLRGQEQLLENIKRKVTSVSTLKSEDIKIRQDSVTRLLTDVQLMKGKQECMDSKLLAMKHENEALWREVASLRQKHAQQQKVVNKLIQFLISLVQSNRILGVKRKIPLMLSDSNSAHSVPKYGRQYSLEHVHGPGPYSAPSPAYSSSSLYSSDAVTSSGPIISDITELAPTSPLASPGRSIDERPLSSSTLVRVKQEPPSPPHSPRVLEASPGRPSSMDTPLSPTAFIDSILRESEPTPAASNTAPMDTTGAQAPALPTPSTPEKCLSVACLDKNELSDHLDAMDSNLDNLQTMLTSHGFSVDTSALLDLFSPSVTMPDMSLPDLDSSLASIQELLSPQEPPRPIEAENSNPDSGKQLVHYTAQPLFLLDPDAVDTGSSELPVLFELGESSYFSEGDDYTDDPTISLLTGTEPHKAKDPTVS

Cytochrome P450 1A2 = target: T2, Cytochrome P450 1A2 (Homo sapiens, UniProt P05177);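 also: PubChem cytochrome P450 panel assay, CYP1A2 panel member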
T2 sequence (P05177 whole entry): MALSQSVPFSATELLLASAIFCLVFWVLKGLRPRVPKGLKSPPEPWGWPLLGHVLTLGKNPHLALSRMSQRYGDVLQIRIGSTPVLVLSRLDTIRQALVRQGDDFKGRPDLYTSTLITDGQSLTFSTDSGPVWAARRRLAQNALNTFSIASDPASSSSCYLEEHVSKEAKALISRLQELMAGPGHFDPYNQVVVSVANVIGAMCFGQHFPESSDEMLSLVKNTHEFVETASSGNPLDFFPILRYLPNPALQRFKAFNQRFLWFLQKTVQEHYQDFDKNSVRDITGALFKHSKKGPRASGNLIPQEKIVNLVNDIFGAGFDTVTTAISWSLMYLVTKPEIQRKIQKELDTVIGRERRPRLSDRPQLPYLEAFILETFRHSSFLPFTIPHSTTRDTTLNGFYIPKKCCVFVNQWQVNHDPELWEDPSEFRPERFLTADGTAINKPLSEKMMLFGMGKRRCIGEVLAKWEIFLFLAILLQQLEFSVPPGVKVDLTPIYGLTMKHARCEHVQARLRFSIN

Cytochrome P450 2C19 = Cytochrome P450 2C19 (Homo sapiens, UniProt P33261); assay: Cytochrome panel assay with activity outcomes. Panel member name: p450-cyp2c19 Compounds with AC50 equal or less than 10 uM are considered active; assay type: functional
Chain of Cytochrome P450 2C19 (P33261 whole entry): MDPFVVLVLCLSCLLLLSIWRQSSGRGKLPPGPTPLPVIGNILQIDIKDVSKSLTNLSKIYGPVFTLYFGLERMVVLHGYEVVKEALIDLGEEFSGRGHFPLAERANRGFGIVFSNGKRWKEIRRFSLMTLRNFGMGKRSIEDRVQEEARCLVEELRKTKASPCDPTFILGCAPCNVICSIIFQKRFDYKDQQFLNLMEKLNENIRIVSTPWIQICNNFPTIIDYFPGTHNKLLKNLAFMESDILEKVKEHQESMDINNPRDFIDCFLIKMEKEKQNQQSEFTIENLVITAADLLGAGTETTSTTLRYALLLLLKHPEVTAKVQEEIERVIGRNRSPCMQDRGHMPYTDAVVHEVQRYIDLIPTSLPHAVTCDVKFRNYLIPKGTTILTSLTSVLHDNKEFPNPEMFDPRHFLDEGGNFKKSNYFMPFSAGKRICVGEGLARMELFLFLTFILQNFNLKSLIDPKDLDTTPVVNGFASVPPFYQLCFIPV

[4] = target: T1, Heat shock factor protein 1; assay: inhibition of MG132-induced HSE-luciferase signal, confirmation, cell-based, NIH3T3, luminescence, dose retest (AID 2382); assay type: functional;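 also: NIH3T3 fibroblasts with HSF1-driven luciferase reporter stressed by proteasome inhibitor MG132; luminescence from HSF1-driven luciferase expression after 8 hours of MG132 stress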

Chain of Cytochrome P450 2C9 (P11712 whole entry): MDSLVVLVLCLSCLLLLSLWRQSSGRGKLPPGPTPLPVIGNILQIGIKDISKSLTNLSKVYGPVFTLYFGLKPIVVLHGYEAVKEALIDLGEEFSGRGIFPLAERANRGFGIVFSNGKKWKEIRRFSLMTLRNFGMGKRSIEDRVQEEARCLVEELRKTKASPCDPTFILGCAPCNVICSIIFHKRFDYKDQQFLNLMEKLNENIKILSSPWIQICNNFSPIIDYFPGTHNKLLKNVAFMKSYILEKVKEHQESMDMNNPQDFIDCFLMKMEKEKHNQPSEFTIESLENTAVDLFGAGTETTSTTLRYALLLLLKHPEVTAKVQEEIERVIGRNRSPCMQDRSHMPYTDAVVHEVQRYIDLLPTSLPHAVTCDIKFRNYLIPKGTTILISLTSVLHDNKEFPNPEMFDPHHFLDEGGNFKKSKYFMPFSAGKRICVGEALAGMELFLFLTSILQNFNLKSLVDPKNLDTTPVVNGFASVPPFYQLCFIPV
Chain of Cytochrome P450 3A4 (P08684 whole entry): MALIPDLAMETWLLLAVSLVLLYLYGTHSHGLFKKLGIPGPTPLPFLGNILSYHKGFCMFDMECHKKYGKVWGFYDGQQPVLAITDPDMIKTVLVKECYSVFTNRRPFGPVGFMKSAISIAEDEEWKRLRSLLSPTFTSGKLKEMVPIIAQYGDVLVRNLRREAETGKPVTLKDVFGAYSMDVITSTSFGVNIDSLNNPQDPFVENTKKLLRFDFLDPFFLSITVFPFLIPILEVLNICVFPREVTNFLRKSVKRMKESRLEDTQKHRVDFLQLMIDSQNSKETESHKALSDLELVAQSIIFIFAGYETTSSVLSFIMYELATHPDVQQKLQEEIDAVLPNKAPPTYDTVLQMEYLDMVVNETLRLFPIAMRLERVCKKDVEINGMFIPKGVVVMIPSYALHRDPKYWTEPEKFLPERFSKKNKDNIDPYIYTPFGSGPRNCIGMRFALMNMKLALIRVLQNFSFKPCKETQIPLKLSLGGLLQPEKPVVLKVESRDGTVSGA

Cn1sc(NC(=O)c2ccccc2Cl)nc1=O
AC50 (Cytochrome P450 2C9): 17.8 µM (inconclusive)

O=C(c1ccc(Oc2ccc(C(F)(F)F)cn2)cc1)N1CCN(c2ccccc2)CC1
AC50 (Cytochrome P450 3A4): 14.1 µM (inconclusive) | AC50 (Cytochrome P450 2C9): 25.1 µM (inconclusive)

CC1CCN(C(=O)Cn2nnc(-c3cccs3)n2)CC1
EC50 [1]: 59.7 µM (active) | EC50 [2]: 4.67 µM (active) | EC50 (H4): 23.4 µM (active)

O=C(Cn1cnc2c(oc3ccccc32)c1=O)c1ccccc1
EC50 [1]: 29.6 µM (active) | EC50 [2]: 104 µM (active) | EC50 (H4): > 120 µM (not active)

COC(=O)c1cc(OC)c(OC)cc1NC(=S)NC(=O)c1ccco1
EC50 [3]: 28.2 µM (active)

COCCn1c(=O)c(-c2cccc(C#N)c2)nc2cnc(OCc3ccccc3)nc21
AC50 (Cytochrome P450 1A2): 12.6 µM (inconclusive) | AC50 (Cytochrome P450 2C19): inconclusive

Cc1ccc2nsnc2c1S(=O)(=O)N(CCO)Cc1cc2cc3c(cc2nc1O)OCCO3
EC50 [1]: 8.99 µM (active) | EC50 [2]: 14.2 µM (active) | EC50 (H4): 10.4 µM (active)

CC(C)Sc1nc(NCc2ccco2)c2c3c(sc2n1)COC(C)(C)C3
EC50 [1]: 17.2 µM (active) | EC50 [2]: 14.6 µM (active) | EC50 (H4): 8.39 µM (active)

COC(=O)C1CSC(C(=O)OC)N1C(=O)Nc1c(C)cccc1C (stereo not drawn)
AC50 (Cytochrome P450 2C9): 25.1 µM (inconclusive)

O=[N+]([O-])c1cccc(/C(=N/N=C/c2ccccc2Br)C23CN4CN(CN(C4)C2)C3)c1
AC50 (Cytochrome P450 1A2): 22.4 µM (inconclusive) | AC50 (Cytochrome P450 3A4): 31.6 µM (inconclusive) | AC50 (Cytochrome P450 2C9): 35.5 µM (inconclusive) | AC50 (Cytochrome P450 2C19; read-out: AC50): 14.1 µM (inconclusive)

O=P(Nc1c(Cl)cccc1Cl)(c1ccccc1)c1nc2c(s1)CCCC2 (stereo not drawn)
AC50 (Cytochrome P450 2C9): 17.8 µM (inconclusive) | AC50 (Cytochrome P450 2C19; read-out: AC50): 20 µM (inconclusive)

N#CC1=C(N)N2C(=C(C#N)C13CCCCC3)SC1CCCCC12O (stereo not drawn)
EC50 [3]: > 260 µM (inactive)

CSc1ccc(C(=O)C2CCCN(Cc3cccnc3)C2)cc1 (stereo not drawn)
EC50 [3]: > 260 µM (inactive)

CCCN(CCC)CCCNC(=O)C[S+]([O-])Cc1nc(-c2ccc(OC)c(OC)c2)oc1C (stereo not drawn)
AC50 (Cytochrome P450 1A2): 3.16 µM (inconclusive) | AC50 (Cytochrome P450 3A4): 7.94 µM (inconclusive) | AC50 (Cytochrome P450 2C9): 39.8 µM (inconclusive) | EC50 [3]: > 260 µM (inactive)

O=C(c1ccncc1)N1CCC2(CC1)CCN(c1ccccc1)CC2
AC50 (Cytochrome P450 2C19; read-out: AC50): 39.8 µM (inconclusive)

Cc1cc(-c2nc3ncccc3o2)ccc1NC(=S)NC(=O)C(C)C
EC50 [3]: > 260 µM (inactive)

O=C(Nc1cccc(Cl)c1)N(Cc1nc(O)c2ccccc2n1)C1CCCC1
EC50 [3]: > 260 µM (inactive)

Cc1cc(C)c(C#N)c(Oc2ccccc2)n1
AC50 (Cytochrome P450 2C19; read-out: AC50): 11.2 µM (inconclusive)

CS(=O)(=O)N1CCCC(C(=O)N2CCc3ccccc3C2)C1 (stereo not drawn)
AC50 (Cytochrome P450 1A2): 25.1 µM (inconclusive) | AC50 (Cytochrome P450 3A4): 17.8 µM (inconclusive) | AC50 (Cytochrome P450 2C19; read-out: AC50): 35.5 µM (inconclusive)

COc1cccc(Nc2ncc3nc(-c4ccccc4)c(=O)n(C4CC4)c3n2)c1
AC50 (Cytochrome P450 2C9): 10 µM (inconclusive)

O=C(CCCc1ccccc1)N1CCN(C2CCCCC2)CC1
EC50 [1]: 13.7 µM (active) | EC50 [2]: 13.5 µM (active) | EC50 (H4): 42.8 µM (active)

COc1ccccc1CNc1cc(-c2cccc(C#N)c2)ncn1
AC50 (Cytochrome P450 3A4): 25.1 µM (inconclusive) | AC50 (Cytochrome P450 2C19; read-out: AC50): 6.31 µM (inconclusive)

O=C(OCc1nc2ccccc2s1)C1CCN(C2=NS(=O)(=O)c3ccccc32)CC1
EC50 [1]: 24.8 µM (active) | EC50 [2]: 24 µM (active) | EC50 (H4): 21.9 µM (active)

CN1CCN(S(=O)(=O)c2cccc(C(=O)NCCC3=CCCCC3)c2)CC1
EC50 [4]: > 195 µM (not active)

O=C1CC(N2CCC(c3nc4ccccc4[nH]3)CC2)C(=O)N1c1ccccc1F (stereo not drawn)
EC50 [3]: > 260 µM (inactive)

COc1ccc(NCc2nnc(SCC(=O)c3ccc(OC)cc3)n2C)cc1
EC50 [1]: > 120 µM (not active) | EC50 [2]: > 120 µM (not active) | EC50 (H4): > 120 µM (not active)

CCOc1ccc(-n2ccnc2SCC(=O)Nc2nnc(C)s2)cc1
AC50 (Cytochrome P450 1A2): 25.1 µM (inconclusive) | AC50 (Cytochrome P450 2C9): 11.2 µM (inconclusive)

CCOC(=O)C1C(=O)OC(C)(C)C1C(C)C(=O)c1ccc(C)cc1C (stereo not drawn)
EC50 [3]: > 260 µM (inactive)

CCc1cccc(CC)c1NC(=O)CN(CC(=O)O)CC(=O)O [ETIFENIN]
AC50 (Cytochrome P450 2C19): inconclusive

O=C(CSCc1cccc(Cl)c1)N/N=C/c1ccc(OCC(=O)N2CCCCC2)cc1
AC50 (Cytochrome P450 1A2): 20 µM (inconclusive) | AC50 (Cytochrome P450 2C9): 22.4 µM (inconclusive)

C=C1S/C(=N/c2ccccc2Cl)N(C(=O)c2sc3ccccc3c2Cl)C1(C)C
EC50 [3]: > 260 µM (inactive)

CC(C)C(=O)N1c2ccccc2N=C2CCCC(O)=C2C1c1ccc(N(C)C)cc1 (stereo not drawn)
EC50 [4]: > 195 µM (not active)

CCN(CC)P(=O)(NC(=O)c1cccn1C)N(CC)CC
EC50 [4]: > 195 µM (not active)

CCOC(=O)N1CCN(C(=O)CNS(=O)(=O)c2cccs2)CC1
AC50 (Cytochrome P450 3A4): 14.1 µM (inconclusive) | AC50 (Cytochrome P450 2C9): 3.98 µM (inconclusive)

Cc1nc(Nc2ccccc2)sc1C
EC50 [4]: > 195 µM (not active)

COc1ccc(-c2nc(C#N)c(N3CCCCC3)o2)cc1
EC50 [3]: > 260 µM (inactive)

CC1(C)CC(=O)C2=C(C1)N(c1ccc(F)cc1)C(N)=C(C#N)C2c1cccs1 (stereo not drawn)
AC50 (Cytochrome P450 2C9): 10 µM (inconclusive) | AC50 (Cytochrome P450 2C19; read-out: AC50): 39.8 µM (inconclusive)

CC1(C)O[C@@H]2C[C@H]3[C@H]4C[C@H](F)C5=CC(=O)C=C[C@@]5(C)[C@@H]4[C@H](O)C[C@]3(C)[C@]2(C(=O)CO)O1
AC50 (Cytochrome P450 3A4): 12.6 µM (inconclusive) | AC50 (Cytochrome P450 2C19): inconclusive

CC(C)c1cccc2nc3c(c([Si](C)(C)C(C)(C)C)c12)Cn1c-3cccc1=O
AC50 (Cytochrome P450 1A2): 25.1 µM (inconclusive) | AC50 (Cytochrome P450 2C9): 39.8 µM (inconclusive)

CCCC(C(=O)NCc1ccco1)N(C(=O)CNS(=O)(=O)c1ccc(Cl)cc1)C1CCCC1 (stereo not drawn)
EC50 [3]: > 260 µM (inactive)

COc1ccc(C(=O)NC(C)c2cc(OC)c(OC)cc2Br)cc1 (stereo not drawn)
AC50 (Cytochrome P450 2C19; read-out: AC50): 39.8 µM (inconclusive)

O=C(CNC(=O)C1CCCCC1)OCC(=O)c1ccc(Br)cc1
EC50 [3]: > 260 µM (inactive)

CC(NC(=O)c1ccc(C(C)(C)C)cc1)C(c1cccs1)N1CCOCC1 (stereo not drawn)
EC50 [3]: > 260 µM (inactive)

O=C(CCNC(=O)c1ccc(Cl)cc1)Nc1ncccc1O
EC50 [4]: > 195 µM (not active)

CC(C)CNC(=O)c1noc2c1CCCC2
EC50 [4]: > 195 µM (not active)

CCOc1ccc(N2C(=O)CN=C2Nc2ccccc2F)cc1
AC50 (Cytochrome P450 1A2): 15.8 µM (inconclusive) | AC50 (Cytochrome P450 2C19; read-out: AC50): 25.1 µM (inconclusive)

COCCCNC(=O)C1CC(=O)N(Cc2ccc(OC)cc2)C1 (stereo not drawn)
AC50 (Cytochrome P450 3A4): 20 µM (inconclusive) | AC50 (Cytochrome P450 2C19; read-out: AC50): 22.4 µM (inconclusive)

CC1(C)C(=O)C(c2ccccc2)=C2CN3C(=O)N(CCc4ccccc4)C(=O)C3(Cc3ccccc3)C=C21 (stereo not drawn)
AC50 (Cytochrome P450 1A2): 6.31 µM (inconclusive) | AC50 (Cytochrome P450 2C9): 12.6 µM (inconclusive)
